Read-outs that look alike come from different tables or passages of the source.
Tests used:
MARK4 [1] = target: T1, MARK4 (Homo sapiens, UniProt Q96L34); assay: Fluorescence quenching binding study (modified Stern-Volmer); settings: excitation 280 nm, 25 °C
T1 construct: inferred from Ni-NTA purification; made in house
T1 sequence (Q96L34 59-368): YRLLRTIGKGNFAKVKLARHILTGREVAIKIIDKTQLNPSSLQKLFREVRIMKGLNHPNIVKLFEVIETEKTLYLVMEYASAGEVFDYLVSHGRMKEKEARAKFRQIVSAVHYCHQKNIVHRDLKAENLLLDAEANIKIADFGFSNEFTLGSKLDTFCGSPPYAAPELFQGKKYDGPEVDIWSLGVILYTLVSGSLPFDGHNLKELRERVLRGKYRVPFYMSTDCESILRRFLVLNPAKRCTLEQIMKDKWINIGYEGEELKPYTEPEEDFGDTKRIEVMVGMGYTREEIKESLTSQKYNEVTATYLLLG

MCF-7 cells [2] = assay: MTT cell proliferation assay, MCF-7; format: cell-based; settings: Homo sapiens, MCF7; MCF-7, MTT, 48 h; read-out: IC50 (cell viability)
Method: (§1) Briefly, breast cancer cells (MCF-7), human cervical cancer cells (HeLa), human neuroblastoma (SH-SY5Y) cells and human embryonic kidney cells (HEK293T) were seeded in a 96 well plates at a concentration of 10 × 10^3 viable cells per well. […] After 48 h of treatment, both medium and inhibitor were removed from the cells, washed twice with phosphate buffer saline (PBS) and then 20 µl MTT (from 5 mg/ml stock) and 100 µl DMEM was loaded to each well followed by 4–5 hours incubation in a CO2 incubator at 37 °C. Finally, the residual MTT medium was removed carefully and dissolves the crystals of formazan by adding 100 µl DMSO in each well. The micro-titer plates were then agitated for 15–20 minutes on an orbital plate shaker and then absorbance at 570 nm was determined on a titerplate reader (BioRad). The absorbance value so obtained was converted into percentage viability in comparison to the control cells (untreated cells/cells treated with media only). For cell proliferation studies doxorubicin has been taken as positive control.

MARK4 [3] = target: T1, MARK4; assay: ATPase inhibition assay ([γ-32P]ATP hydrolysis, TLC); format: biochemical
[4] = system: phosphorylation of tau in SH-SY5Y cells; assay: Tau-phosphorylation assay by flow cytometry (anti-tau pSer262); format: cell-based, human; settings: 80–120 μM, 24 hrs
MARK4 [5] = target: T1, MARK4; assay: Isothermal titration calorimetry; format: binding; settings: ITC, two-site model; for K a1 (association constant): site 1, 25 °C; for K a2 (association constant): site 2, 25 °C
HeLa cells = assay: MTT cell proliferation assay, HeLa; format: cell-based; settings: Homo sapiens, 48 h, read-out: IC50 (cell viability)
Method: as §1

HEK293 cells = assay: MTT cell proliferation assay, HEK293; format: cell-based, human; settings: 48 h, at a dose even higher than 200 μM
Method: as §1

SH-SY5Y cells = assay: MTT cell proliferation assay, SH-SY5Y; format: cell-based, human; settings: 48 h, at a dose even higher than 200 μM
Method: as §1

MCF-7 cells [6] = assay: Annexin-V apoptosis assay by flow cytometry; format: cell-based, human; settings: MCF-7, IC50 concentration (rutin 80 μM, vanillin 120 μM), 48 h
Description: Apoptosis plays a central role in the progress and pathophysiology of a wide variety of diseases. However, due to impairment of apoptotic signal transmission most of the cancerous cells evade apoptosis. […] Annexin- V staining was used to study the apoptosis. […] Cells were washed twice with phosphate-buffered saline (PBS) and stained with FITC labeled Annexin- V. Annexin- Vpositive cells were examined by flow cytometry. […] Annexin-V staining was used to determine the cell apoptosis, [73]. […] After treatment, nearly 2 × 10^6 cells were trypsinized and washed two times with 5 ml of PBS by centrifuging at 1800 rpm for 4 min. FITC-Annexin-V staining was done by using FITC-Annexin-V kit according to the manufacturer’s instructions (BD-Biosciences, USA). 10,000 events for each sample were analyzed by flow cytometry BD FACS Canto and data analysis was performed with help of flowJo software.

MCF-7 cells [7] = assay: Intracellular ROS by DCFDA staining; format: cell-based, human; settings: MCF-7, 20–120 μM, 12 h
Method: (§2) Followed by incubation, to measure intracellular ROS, 2-Dichlorofluorescein diacetate (DCFDA) staining was performed. […] Further, cytoplasmic superoxide level was measured by dihydroethidium staining (Fig. 7C). […] In fluorescence imaging, substantial decreases in the extent of DHE fluorescence as compared to control (untreated cells) have been observed (Fig. 7C ). […] Total Reactive oxygen species determination (ROS) content inside the cells was determined using the DCFDA reagent. This assay measures various ROS such as H2O2 and hydroxyl radicals. […] After that cells were washed twice with PBS, pH7.4, trypsinized and collected by centrifugation. Finally cells were resuspended in 300 μl of PBS and fluorescence was measured at Jasco spectroflourimeter (FP-6200) using a 5 mm quartz cuvette. The excitation and emission filters were set at 485/500–550 nm respectively. Similarly with some modifications, cytosolic superoxide levels were determined using dihydroxyethidium staining. Briefly, cells were grown on coverslips to 70–80% confluency and replaced the complete media with reduced serum media for overnight. […] Following DHE staining, DAPI is used to satin nuclei of the cells as described earlier. Fluorescence images were taken on Nikon-EclipseTS100 microscope.

MCF-7 cells [8] = assay: Cytoplasmic superoxide by DHE staining; format: cell-based, human; settings: MCF-7, rutin 80 μM, vanillin 120 μM
Method: as §2

[9] = site 1, read-out: K D1 (dissociation constant)
[10] = site 2, read-out: K D2 (dissociation constant)

SMILES | Binding affinity (K a) (MARK4 [1]) | IC50 (MCF-7 cells [2]) | inhibition at 40 µM (MARK4 [3]) | Phosphorylation of tau [4] | K a1 (association constant) (MARK4 [5]) | Kd (MARK4 [5]; [9]) | K a2 (association constant) (MARK4 [5]) | Kd (MARK4 [5]; [10]) | IC50 (HeLa cells) | Effect on cell viability (HEK293 cells) | Effect on cell viability (SH-SY5Y cells) | Increase in apoptosis as compared to the control cells (MCF-7 cells [6]) | DCF fluorescence (intracellular ROS) (MCF-7 cells [7]) | Cytoplasmic superoxide levels (DHE fluorescence) (MCF-7 cells [8]) | further results
O=C(O)c1cc(O)c(O)c(O)c1 [Gallic acid] | 7.6 M⁻¹ |  |  |  |  |  |  |  |  |  |  |  |  |  | 
COc1cc(/C=C/C(=O)O)ccc1O [Ferulic acid] | 13000 M⁻¹ |  |  |  |  |  |  |  |  |  |  |  |  |  | 
COc1cccc2c1C(=O)c1c(O)c3c(c(O)c1C2=O)C[C@@](O)(C(=O)CO)C[C@@H]3O[C@H]1C[C@H](N)[C@H](O)[C@H](C)O1 [doxorubicin, reference compound] |  | 0.12 µM |  |  |  |  |  |  |  |  |  |  |  |  | 
COc1ccc([C@@H]2CC(=O)c3c(O)cc(O[C@@H]4O[C@H](CO[C@@H]5O[C@@H](C)[C@H](O)[C@@H](O)[C@H]5O)[C@@H](O)[C@H](O)[C@H]4O)cc3O2)cc1O [Hesperidin] | 112 M⁻¹ |  |  |  |  |  |  |  |  |  |  |  |  |  | 
COc1cc(C=O)ccc1O [Vanillin] | 16500 M⁻¹ | 120 µM | ~50% | inhibit the phosphorylation of tau | K a1 = 8.43 × 10^3 ± 0.5 × 10^3 M^−1 | 119 µM | K a2 = 1.45 × 10^5 ± 0.29 × 10^5 M^−1 | 6.9 µM | > 200 µM | did not inhibit the viability | did not inhibit the viability | 9% | dose-dependent decrease in DCF fluorescence | decreases cytoplasmic superoxide levels | 
C[C@@H]1O[C@@H](OC[C@H]2O[C@@H](Oc3c(-c4ccc(O)c(O)c4)oc4cc(O)cc(O)c4c3=O)[C@H](O)[C@@H](O)[C@@H]2O)[C@H](O)[C@H](O)[C@H]1O [Rutin] | 287000 M⁻¹ | 80 µM | ~50% | inhibit the phosphorylation of tau | K a1 = 2.04 × 10^5 ± 0.15 × 10^5 M^−1 | 4.9 µM | K a2 = 1.72 × 10^6 ± 0.31 × 10^6 M^−1 | 0.581 µM | > 200 µM | did not inhibit the viability | did not inhibit the viability | 12% | dose-dependent decrease in DCF fluorescence | decreases cytoplasmic superoxide levels | ATPase enzyme activity in initial screening (MARK4 [3]; initial screening, compound 30 µM (Fig. S5)): significant decrease in the enzyme activity; ΔH 1 (enthalpy change) (MARK4 [5]; site 1): ΔH 1 = −4.61 × 10^6 cal/mol; ΔS 1 (MARK4 [5]; site 1): ΔS 1 = −1.52 × 10^4 cal/mol/deg; ΔH 2 (enthalpy change) (MARK4 [5]; site 2): ΔH 2 = −1.0 × 10^4 cal/mol; ΔS 2 (MARK4 [5]; site 2): ΔS 2 = −4.74 cal/mol/deg
